Measured values taken from PMC9014415, “Repositioning of a Diaminothiazole Series Confirmed to Target the Cyclin-Dependent Kinase CRK12 for Use in the Treatment of African Animal Trypanosomiasis” (Journal of Medicinal Chemistry, 2022).
Several values for one entry are separate records, joined by “and”; a condition that tells them apart may be missing. Equal values may be shown once.

Legend:
[1] = test system: T. congolense; assay: Cattle efficacy for compound 2, intramuscular (CIRDES), T. congolense; format: in vivo, Trypanosoma congolense
Procedure: Compound 2 was progressed into IM efficacy studies dosing at 10 mg/kg either once or twice, 15 h apart, in cattle infected with T. congolense or T. vivax. […]
3.5 Cattle efficacy for compound 2, intramuscular (CIRDES)
Felani-zebu cattle were housed in a fly-proof facility, acclimatised for 15 d prior to the study, cattle were treated with an anthelmintic, an ectoparasiticide and an antibiotic. Donor animals were infected with stabilates (frozen stocks) of either T. congolense KOT256 (resistant to 7 mg/kg diminazene in cattle) or T. vivax Gando Bongaly (resistant to diminazene 7 mg/kg and to isometamidium 1 mg/kg […]
in cattle). Blood from the donor animals, diluted with phosphate buffered glucose was used to infect recipient animals IV via the jugular vein. Infection was with approximately 100,000 fresh viable parasites. The compounds were given IM. Each injection was up to 10 mL and given in neck in the following order: left anterior third, right anterior third, left posterior third and right posterior third.
Animals over 240 kg required a fifth injection site for the IVP, and this was given in the left or right hind leg. Cattle were randomised to treatments. Parasitaemia was monitored 3 times per calendar week, though collection of blood and assessment of clinical symptoms. Blood samples were also […]
treatment). […]

[2] = test system: T. b. brucei; assay: In vitro drug sensitivity assay, bloodstream-form T. b. brucei; format: cell-based; conditions: Trypanosoma brucei, n = 12
Procedure: 1.1 In vitro drug sensitivity assays - Trypanosoma brucei brucei
Drug sensitivity assays were carried out with bloodstream-form (BSF) T. b. brucei ‘single marker’ S427 cells grown at 37°C with 5% CO2 in HMI-9T medium,1 as previously described.2 1.2 In vitro drug sensitivity assays - Trypanosoma congolense
EC50 values for test compounds against T. congolense (IL3000 strain) were conducted as previously described3 with minor modifications.4 Briefly, trypanosome cell densities were determined using a CASY cell counter (Schärfe) and diluted to a seeding density of 2 x 105 trypanosomes/mL. […] Absorbance was read using a SpectraMax (Gemini XS) fluorescence reader at an excitation wavelength of 536 nm and an emission wavelength of 588 nm. EC50 values were determined using SOFTmax Pro 5.2 analysis software. […]
Since T. vivax cannot be cultured axenically, BSF trypanosomes were harvested from an infected mouse with high parasitemia via cardiac puncture and used directly in ex vivo assays. EC50 values were determined against T, vivax (STIB 719/ ILRAD 560) as previously described3, with minor modifications. Briefly, cell densities were determined using a Neubauer chamber and then diluted to a seeding density of 4 x 105 trypanosomes / mL. […] Absorbance was read using a SpectraMax (Gemini XS) fluorescence reader at an excitation wavelength of 536 nm and an emission wavelength of 588 nm. […]

## CC(C)CS(=O)(=O)N[C@H]1CC[C@H](Nc2nc(N)c(C(=O)c3c(F)cc(CN(C)C)cc3F)s2)CC1 [Compound 2, N-(trans)-[4-[[4-Amino-5-[4-(dimethylaminomethyl)-2,6-difluoro-benzoyl]thiazol-2-yl]amino]cyclohexyl]-2-methyl-propane-1-sulfonamide]
[1]; 10 mg/kg IM twice, 15 h apart, treatment groups T2 and T4 together
  Cattle cured: three out of the eight
[1]; T1, 10 mg/kg IM once, cured/animals, 100 days
  efficacy: 0/6
[1]; T1 single dose IM, animals 1903, 1910, 1913, 1924, 1935, 1936
  Efficacy, individual animals: no
[1]; T2, 10 mg/kg IM twice, 15 h apart, cured/animals
  efficacy: 1/4
[1]; T2 dosed twice IM, animals 1905, 1906, 1909, 1917
  Efficacy, individual animals: no (3×) and yes
[1]; T4, saline twice, followed by compound 2 rescue dose twice IM 5 days later
  efficacy: 2/4
[1]; T4 after 2 (two rescue doses IM), animals 1914, 1921, 1923, 1927
  Efficacy, individual animals: no (2×) and yes (2×)

## CC(C)CS(=O)(=O)N[C@H]1CC[C@H](Nc2nc(N)c(C(=O)c3c(F)cccc3F)s2)CC1 [Compound 1, N-((trans)-4-((4-Amino-5-(2,6-difluorobenzoyl)thiazol-2-yl)amino)cyclohexyl)-2-methylpropane-1-sulfonamide]
[2]
  EC50: 1.3 nM
